Reference: paper PMC8329197, “Compounds targeting OSBPL7 increase ABCA1-dependent cholesterol efflux preserving kidney function in two models of kidney disease” (Nature Communications, 2021)
“And” between values parts separate entries of the source, which are not always exact repeats. Identical values can stand only once.

How the values were obtained:
human podocytes = test: apoAI-mediated cholesterol efflux in human podocytes; format: cell-based; conditions: for ApoA1-mediated cholesterol efflux (%) in podocytes: single experiments
Experimental: Cell lines were purchased from ATCC and subcultured for no more than passage 15, except for human podocytes, which were originally from Dr Jochen Reiser. Conditionally immortalized human podocytes were cultured under permissive conditions at 33 °C, in RPMI medium (Corning) containing 10% FBS (GIBCO), 1% penicillin/streptomycin, 0.01 mg/ml recombinant human insulin, 0.0055 mg/ml human transferrin (substantially iron-free), and 0.005 μg/ml sodium selenite (ITS, Corning). To induce differentiation, podocytes were cultured at 37 °C for 14 days in RPMI medium containing 10% FBS (GIBCO) and 1% penicillin/streptomycin. Differentiated podocytes were starved in RPMI-0.2% FBS for 18 h and then treated with 1 μM, 5 μM, and 10 μM of compounds freshly prepared in DMSO for 18 h at 37 °C as indicated.
Human podocytes differentiated for 13 days were labeled for 24 h at 37 °C in RPMI medium containing 2% FBS and [^3H]-cholesterol (1 μCi/ml, American Radiolabeled Chemicals). Cells were then washed 3 times with PBS and incubated with RPMI supplemented with 0.2% fat free-BSA (Sigma) with or without compounds for 18-h at 37 °C. The compounds were used at the following concentrations: Cpd C (1 μM), Cpd A (1 μM, 5 μM) and Cpd G (1 μM, 5 μM, 10 μM). Following the 18-h incubation, human apoAI (Calbiochem) was added to the media, (20 μg/mL final concentration) and the cells were incubated for another 18 h at 37 °C. Aliquots of medium collected before (T = 0 h) and after (T = 18 h) the addition of apoAI were centrifuged at 12,000 × g for 5 min and the radioactivity in the supernatant was counted by liquid scintillation. Cells were then washed with PBS, lysed 0.1% SDS, 0.1M NaOH and the radioactivity in the lysates was quantified by liquid scintillation. apoAI-mediated cholesterol efflux, expressed as %, was calculated as the amount of label released to the medium after adding apoAI (the difference in radioactivity in the medium before and after adding ApoA1) divided by the amount of total label in each well (radioactivity released to the media plus radioactivity in the lysed cells).

3A4 = test: TDI (3A4) time dependent inhibition; format: in vitro ADME
Covalent Binding = format: in vitro ADME
Hepatocytes Clint, rat = format: in vitro ADME
[1] = system: Adriamycin (ADR)-induced nephropathy in Balb/c mice; test: Adriamycin-induced nephropathy, main study: albumin/creatinine ratio and body weight
[2] = system: Adriamycin (ADR)-induced nephropathy in Balb/c mice; test: Adriamycin-induced nephropathy, dose-finding pilot study: ACR and body weight time course; conditions: for ACR in pilot study: days 7-28; for Body Weight / ACR in spot urine: ADR, individual mice
[3] = 28 days after ADR, Cpd G 100 mg/Kg
[4] = 30 mg/Kg/day, 7 days after inj, 30 mg/kg/day
[5] = 30 mg/Kg/day, 14 days after inj, 30 mg/kg/day
[6] = 30 mg/Kg/day, 21 days after inj, 30 mg/kg/day
[7] = 30 mg/Kg/day, 28 days after inj, 30 mg/kg/day
[8] = 100 mg/Kg/day, 7 days after inj, 100 mg/kg/day
[9] = 100 mg/Kg/day, 14 days after inj, 100 mg/kg/day
[10] = 100 mg/Kg/day, 21 days after inj, 100 mg/kg/day
[11] = 100 mg/Kg/day, 28 days after inj, 100 mg/kg/day

Q: Which “ApoA1-mediated cholesterol efflux (%) in podocytes” value (human podocytes; 1 uM) does the source give for `O=C(N[C@@H]1CCCC[C@H]1O)c1cnc(OCC(F)(F)F)c(-c2ccc(Cl)c(Cl)c2)c1` [Cpd G] here?
A: 0.3% and 1.2% and 1.6%

Q: And the “ApoA1-mediated cholesterol efflux (%) in podocytes” value (human podocytes; 5 uM)?
A: 0% and 2.5% and 2.3%

Q: And the “ApoA1-mediated cholesterol efflux (%) in podocytes” value (human podocytes; 10 uM)?
A: 4.4% and 7.9%

Q: And the “Increase in apoAI-mediated cholesterol efflux vs. untreated cells” value (human podocytes; Cpd G 10 µM, Cpd A 5 µM, Cpd C 1 µM)?
A: ~2 fold

Q: And the “TDI (3A4) time dependent inhib” value (3A4)?
A: Negative

Q: And the “Covalent Binding” value (Covalent Binding)?
A: No flag

Q: What about the “Hepatocytes Clint (Fh%) (r/h)” value (Hepatocytes Clint, rat) of the same molecule?
A: 70%

Q: And the “Effect on weight loss” value ([1]; 28 days after ADR)?
A: substantially reduced weight loss

Q: And the “Mice that showed no weight loss” value [1, 3]?
A: 7 out of 10

Q: And the “Weight loss of the remaining 3 mice” value [1, 3]?
A: less than 5%

Q: And the “ACR, median” value ([1]; 28 days after ADR, Cpd A 30, Cpd G 100, Cpd C 10 mg/Kg, group median)?
A: 0.6 mg albumin/mg creatinine and 0.576 mg albumin/mg creatinine

Q: What about the “Weight (d28)” value ([1]; animal weight when therapy finished, single animals) of the same molecule?
A: 20 and 21 and 20.5 and 16 and 19 and 17

Q: What about the “Weight Change (as % of weight at day 0), Median” value ([1]; day 28 after ADR, Cpd A 30, Cpd G 100, Cpd C 10 mg/Kg) of the same molecule?
A: 0%

Q: And the “Weight Change (as % of weight at day 0)” value ([1]; day 28 after ADR, Cpd A 30, Cpd G 100, Cpd C 10 mg/Kg, single animals)?
A: 5% and 2.5% and 0% and -9.1% and -5%

Q: What about the “ACR values (mg Albumin / mg Creatinine)” value ([1]; spot urine 28 days after ADR, oral daily Cpd A 30, Cpd G 100, Cpd C 10 mg/Kg, single animals) of the same molecule?
A: 3.053 mg Albumin / mg Creatinine and 3.33 mg Albumin / mg Creatinine and 0.105 mg Albumin / mg Creatinine and 0.292 mg Albumin / mg Creatinine and 4.643 mg Albumin / mg Creatinine and 4.983 mg Albumin / mg Creatinine and 0.09 mg Albumin / mg Creatinine and 0.018 mg Albumin / mg Creatinine and 0.86 mg Albumin / mg Creatinine and 0.271 mg Albumin / mg Creatinine

Q: And the “Times lower ACR” value ([1]; vs ADR+V, 28 days, Cpd A 30, Cpd G 100 mg/kg/day)?
A: 30 times

Q: And the “ACR in pilot study” value ([2]; 30 mg/kg/day oral)?
A: to a lesser extent

Q: What about the “ACR in pilot study” value ([2]; 100 mg/kg/day oral) of the same molecule?
A: significantly improved

Q: What about the “Body Weight” value ([2]; 30 mg/Kg/day, 0 days after inj, 30 mg/kg/day) of the same molecule?
A: 20 grams and 18 grams and 19 grams (2×) and 23 grams

Q: What about the “ACR in spot urine” value [2, 4] of the same molecule?
A: 0.007 mg Albumin/ mg Creatinine in urine and 0.03 mg Albumin/ mg Creatinine in urine and 0.12 mg Albumin/ mg Creatinine in urine and 31.944 mg Albumin/ mg Creatinine in urine and 0.643 mg Albumin/ mg Creatinine in urine

Q: What about the “Body Weight” value [2, 4] of the same molecule?
A: 18 grams and 19 grams (3×) and 23 grams

Q: What about the “ACR in spot urine” value [2, 5] of the same molecule?
A: 51.688 mg Albumin/ mg Creatinine in urine and 33.252 mg Albumin/ mg Creatinine in urine and 84.069 mg Albumin/ mg Creatinine in urine and 36.836 mg Albumin/ mg Creatinine in urine and 5.571 mg Albumin/ mg Creatinine in urine

Q: And the “Body Weight” value [2, 5]?
A: 18 grams and 19 grams (2×) and 16 grams and 23 grams

Q: What about the “ACR in spot urine” value [2, 6] of the same molecule?
A: 85.027 mg Albumin/ mg Creatinine in urine and 29.222 mg Albumin/ mg Creatinine in urine and 44.604 mg Albumin/ mg Creatinine in urine and 23.436 mg Albumin/ mg Creatinine in urine and 5.121 mg Albumin/ mg Creatinine in urine

Q: And the “Body Weight” value [2, 6]?
A: 17 grams and 19 grams (2×) and 18 grams and 15 grams

Q: What about the “ACR in spot urine” value [2, 7] of the same molecule?
A: 34.615 mg Albumin/ mg Creatinine in urine and 3.13 mg Albumin/ mg Creatinine in urine and 6.059 mg Albumin/ mg Creatinine in urine and 7.143 mg Albumin/ mg Creatinine in urine and 2.473 mg Albumin/ mg Creatinine in urine

Q: What about the “Body Weight” value [2, 7] of the same molecule?
A: 16 grams and 20 grams (2×) and 17 grams and 15 grams

Q: And the “Body Weight” value ([2]; 100 mg/Kg/day, 0 days after inj, 100 mg/kg/day)?
A: 20 grams (3×) and 16 grams and 22 grams

Q: What about the “ACR in spot urine” value [2, 8] of the same molecule?
A: 0.061 mg Albumin/ mg Creatinine in urine and 0.016 mg Albumin/ mg Creatinine in urine and 0.015 mg Albumin/ mg Creatinine in urine and 0.233 mg Albumin/ mg Creatinine in urine and 9.666 mg Albumin/ mg Creatinine in urine

Q: And the “Body Weight” value [2, 8]?
A: 19 grams (3×) and 16 grams and 22 grams

Q: What about the “ACR in spot urine” value [2, 9] of the same molecule?
A: 3.994 mg Albumin/ mg Creatinine in urine and 0.535 mg Albumin/ mg Creatinine in urine and 50.828 mg Albumin/ mg Creatinine in urine and 1.336 mg Albumin/ mg Creatinine in urine and 89.551 mg Albumin/ mg Creatinine in urine

Q: What about the “Body Weight” value [2, 9] of the same molecule?
A: 20 grams (2×) and 19 grams (2×) and 15 grams

Q: And the “ACR in spot urine” value [2, 10]?
A: 0.238 mg Albumin/ mg Creatinine in urine and 0.124 mg Albumin/ mg Creatinine in urine and 0.794 mg Albumin/ mg Creatinine in urine and 8.14 mg Albumin/ mg Creatinine in urine

Q: What about the “Body Weight” value [2, 10] of the same molecule?
A: 20 grams (3×) and 15 grams and 19 grams

Q: What about the “ACR in spot urine” value [2, 11] of the same molecule?
A: 0.09 mg Albumin/ mg Creatinine in urine and 0.018 mg Albumin/ mg Creatinine in urine and 0.86 mg Albumin/ mg Creatinine in urine and 0.271 mg Albumin/ mg Creatinine in urine and 3.053 mg Albumin/ mg Creatinine in urine

Q: What about the “Body Weight” value [2, 11] of the same molecule?
A: 20 grams (2×) and 21 grams and 20.5 grams and 16 grams
